{
  "source": "ChEMBL document CHEMBL1132484",
  "about": "“New alpha-substituted succinate-based hydroxamic acids as TNFalpha convertase inhibitors” (J Med Chem, 1999)",
  "key": {"[1]": {"target": "T1, Disintegrin and metalloproteinase domain-containing protein 17 (Homo sapiens, UniProt P78536)", "T1 sequence (P78536 whole entry, the tested form may be a part)": "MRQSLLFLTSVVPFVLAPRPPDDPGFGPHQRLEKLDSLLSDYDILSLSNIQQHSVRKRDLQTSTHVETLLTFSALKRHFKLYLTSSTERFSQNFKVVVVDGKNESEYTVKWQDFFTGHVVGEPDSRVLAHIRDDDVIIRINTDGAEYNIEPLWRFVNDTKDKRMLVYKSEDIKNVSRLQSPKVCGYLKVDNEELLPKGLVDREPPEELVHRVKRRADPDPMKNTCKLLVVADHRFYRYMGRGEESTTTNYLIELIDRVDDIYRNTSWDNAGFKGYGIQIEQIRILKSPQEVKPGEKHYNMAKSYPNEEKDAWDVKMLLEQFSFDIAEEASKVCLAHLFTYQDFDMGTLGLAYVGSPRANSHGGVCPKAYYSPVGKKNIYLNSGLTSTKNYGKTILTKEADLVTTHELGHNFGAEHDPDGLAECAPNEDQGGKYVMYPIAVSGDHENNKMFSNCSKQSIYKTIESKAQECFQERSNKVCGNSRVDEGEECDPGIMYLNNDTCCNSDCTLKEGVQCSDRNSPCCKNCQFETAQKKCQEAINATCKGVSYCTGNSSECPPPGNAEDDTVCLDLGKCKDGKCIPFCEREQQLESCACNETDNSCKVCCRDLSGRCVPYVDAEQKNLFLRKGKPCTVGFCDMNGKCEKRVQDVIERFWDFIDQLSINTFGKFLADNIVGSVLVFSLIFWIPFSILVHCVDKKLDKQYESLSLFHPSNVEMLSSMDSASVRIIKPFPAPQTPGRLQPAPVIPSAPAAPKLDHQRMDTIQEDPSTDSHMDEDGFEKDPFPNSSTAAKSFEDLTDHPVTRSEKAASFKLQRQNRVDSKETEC", "experiment": "Inhibitory activity against Tumor necrosis factor alpha-converting enzyme (TACE) in blood.", "type": "tissue-based"}, "[2]": {"target": "T1, Disintegrin and metalloproteinase domain-containing protein 17", "experiment": "Inhibition of TNF(tumor necrosis factor) in human blood", "type": "functional"}},
  "note": "pIC50: −log10 of the molar value.",
  "data": [
    {"smiles": "CNC(=O)[C@@H](NC(=O)[C@H](CC(C)C)[C@H](NS(=O)(=O)c1ccc2c(c1)CCC(=O)N2C)C(=O)NO)C(C)(C)C", "values": [
      {"measurement": "pIC50", "setting": "[1]", "result": 8.54},
      {"measurement": "pIC50", "setting": "[2]", "result": 5.52}
    ]},
    {"smiles": "CNC(=O)[C@@H](NC(=O)C(CC(C)C)C(NS(=O)(=O)c1ccc(NC(C)=O)cc1)C(=O)NO)C(C)(C)C", "note": "(single isomer, unassigned)", "values": [
      {"measurement": "pIC50", "setting": "[1]", "result": 8.89},
      {"measurement": "pIC50", "setting": "[2]", "result": 5.92}
    ]},
    {"smiles": "CNC(=O)[C@@H](NC(=O)[C@H](CC(C)C)[C@H](OC)C(=O)NO)C(C)(C)C", "values": [
      {"measurement": "pIC50", "setting": "[1]", "result": 8.82},
      {"measurement": "pIC50", "setting": "[2]", "result": 5.30}
    ]},
    {"smiles": "CNC(=O)[C@@H](NC(=O)[C@H](CC(C)C)[C@H](NS(=O)(=O)c1cccc2c(=O)[nH]cnc12)C(=O)NO)C(C)(C)C", "values": [
      {"measurement": "pIC50", "setting": "[1]", "result": 8.47},
      {"measurement": "pIC50", "setting": "[2]", "result": 5.31}
    ]},
    {"smiles": "CNC(=O)[C@@H](NC(=O)[C@H](CC(C)C)[C@H](OCc1cccc2cccnc12)C(=O)NO)C(C)(C)C", "values": [
      {"measurement": "pIC50", "setting": "[1]", "result": 9.40},
      {"measurement": "pIC50", "setting": "[2]", "result": 5.09}
    ]},
    {"smiles": "CNC(=O)[C@@H](NC(=O)[C@H](CC(C)C)[C@H](OCc1ccc2oc(=O)ccc2c1)C(=O)NO)C(C)(C)C", "values": [
      {"measurement": "pIC50", "setting": "[1]", "result": 9.10},
      {"measurement": "pIC50", "setting": "[2]", "result": 5.44}
    ]},
    {"smiles": "CNC(=O)[C@@H](NC(=O)C(CC(C)C)C(NS(=O)(=O)c1ccccc1)C(=O)NO)C(C)(C)C", "note": "(single isomer, unassigned)", "values": [
      {"measurement": "pIC50", "setting": "[1]", "result": 8.82},
      {"measurement": "pIC50", "setting": "[2]", "result": 5.89}
    ]},
    {"smiles": "CNC(=O)[C@H](Cc1ccccc1)NC(=O)[C@H](CC(C)C)[C@H](CSc1ccccc1)C(=O)NO", "values": [
      {"measurement": "pIC50", "setting": "[1]", "result": 8.74},
      {"measurement": "pIC50", "setting": "[2]", "result": 5.28}
    ]},
    {"smiles": "CC1(C)SCCN(S(=O)(=O)c2ccc(Oc3ccncc3)cc2)[C@H]1C(=O)NO", "note": "[PRINOMASTAT]", "values": [
      {"measurement": "pIC50", "setting": "[1]", "result": 8.26},
      {"measurement": "pIC50", "setting": "[2]", "result": 4.78}
    ]},
    {"smiles": "CNC(=O)[C@@H](NC(=O)[C@H](CC(C)C)[C@H](Sc1cccc(C(C)(C)C#N)c1)C(=O)NO)C(C)(C)C", "values": [
      {"measurement": "pIC50", "setting": "[1]", "result": 8.80},
      {"measurement": "pIC50", "setting": "[2]", "result": 5.55}
    ]},
    {"smiles": "CNC(=O)[C@@H](NC(=O)[C@H](CC(C)C)[C@H](NS(=O)(=O)CCc1ccncc1)C(=O)NO)C(C)(C)C", "values": [
      {"measurement": "pIC50", "setting": "[1]", "result": 8.89},
      {"measurement": "pIC50", "setting": "[2]", "result": 6.15}
    ]},
    {"smiles": "CNC(=O)[C@@H](NC(=O)[C@H](CC(C)C)[C@H](OCc1cc2ccccc2n(C)c1=O)C(=O)NO)C(C)(C)C", "values": [
      {"measurement": "pIC50", "setting": "[1]", "result": 9.36},
      {"measurement": "pIC50", "setting": "[2]", "result": 5.63}
    ]},
    {"smiles": "CCCN([C@H](C(=O)NO)[C@@H](CC(C)C)C(=O)N[C@H](C(=O)NC)C(C)(C)C)S(=O)(=O)c1cccc2cccnc12", "values": [
      {"measurement": "pIC50", "setting": "[1]", "result": 8.00}
    ]},
    {"smiles": "CNC(=O)[C@@H](NC(=O)C(CC(C)C)C(NS(=O)(=O)c1cnc[nH]1)C(=O)NO)C(C)(C)C", "note": "(single isomer, unassigned)", "values": [
      {"measurement": "pIC50", "setting": "[1]", "result": 8.05}
    ]},
    {"smiles": "CNC(=O)[C@@H](NC(=O)[C@H](CC(C)C)[C@H](NC(=O)c1ccc2ncccc2c1)C(=O)NO)C(C)(C)C", "values": [
      {"measurement": "pIC50", "setting": "[1]", "result": 8.02}
    ]},
    {"smiles": "CNC(=O)[C@@H](NC(=O)C(CC(C)C)C(NC(C)=O)C(=O)NO)C(C)(C)C", "note": "(single isomer, unassigned)", "values": [
      {"measurement": "pIC50", "setting": "[1]", "result": 7.89}
    ]},
    {"smiles": "CNC(=O)[C@@H](NC(=O)C(CC(C)C)C(NC(=O)c1ccccc1)C(=O)NO)C(C)(C)C", "note": "(single isomer, unassigned)", "values": [
      {"measurement": "pIC50", "setting": "[1]", "result": 8.05}
    ]},
    {"smiles": "CNC(=O)[C@@H](NC(=O)[C@H](CC(C)C)[C@H](Sc1ccccc1)C(=O)NO)C(C)(C)C", "values": [
      {"measurement": "pIC50", "setting": "[1]", "result": 6.73}
    ]},
    {"smiles": "CNC(=O)[C@@H](NC(=O)C(CC(C)C)C(NS(=O)(=O)c1ccccc1C#N)C(=O)NO)C(C)(C)C", "note": "(single isomer, unassigned)", "values": [
      {"measurement": "pIC50", "setting": "[1]", "result": 7.77}
    ]},
    {"smiles": "CNC(=O)[C@@H](NC(=O)[C@H](CC(C)C)[C@H](NS(=O)(=O)c1c(C(C)C)cc(C(C)C)cc1C(C)C)C(=O)NO)C(C)(C)C", "values": [
      {"measurement": "pIC50", "setting": "[1]", "result": 7.89}
    ]},
    {"smiles": "CNC(=O)[C@@H](NC(=O)[C@H](CC(C)C)[C@H](NC(=O)c1cccnc1)C(=O)NO)C(C)(C)C", "values": [
      {"measurement": "pIC50", "setting": "[1]", "result": 7.66}
    ]},
    {"smiles": "CNC(=O)[C@@H](NC(=O)[C@H](CC(C)C)[C@@H](Sc1ccccc1)C(=O)NO)C(C)(C)C", "values": [
      {"measurement": "pIC50", "setting": "[1]", "result": 9.00}
    ]},
    {"smiles": "CNC(=O)[C@@H](NC(=O)C(CC(C)C)C(NS(=O)(=O)c1ccc(F)cc1Cl)C(=O)NO)C(C)(C)C", "note": "(single isomer, unassigned)", "values": [
      {"measurement": "pIC50", "setting": "[1]", "result": 8.01}
    ]},
    {"smiles": "CNC(=O)[C@@H](NC(=O)[C@H](CC(C)C)[C@H](Sc1ccc(OC)c(OC)c1)C(=O)NO)C(C)(C)C", "values": [
      {"measurement": "pIC50", "setting": "[1]", "result": 8.92}
    ]},
    {"smiles": "CNC(=O)[C@@H](NC(=O)C(CC(C)C)C(C(=O)NO)N(Cc1ccccc1)S(=O)(=O)c1cccc2cccnc12)C(C)(C)C", "note": "(single isomer, unassigned)", "values": [
      {"measurement": "pIC50", "setting": "[1]", "result": 7.07}
    ]}
  ]
}
